Legend:
Brain [1] = conditions: rat, 5 h, 0.1 µM
in vivo = conditions: Sprague-Dawley, rat
in vitro = conditions: Sprague-Dawley, rat, brain homogenate
Brain [2] = test: Drug uptake in Sprague-Dawley rat brain slices in presence of 50 nM of monensin; format: ADME, tissue-based
Brain [3] = test: Drug uptake in Sprague-Dawley rat brain slices in presence of 1 uM of decynium-22; format: ADME, tissue-based
[4] = Dissociation constant, pKa of the basic compound by capillary electrophoresis-mass spectrometry analysis; format: physicochemical
Brain [5] = test: Unbound volume of distribution in Sprague-Dawley rat brain slices at 100 nM after 5 hrs in presence of 10 uM of cyclosporine; format: ADME, tissue-based; conditions: 0.1 µM

Description for physchem: Dissociation constant, pKa of the acidic compound by capillary electrophoresis-mass spectrometry analysis

| SMILES | Vdu (Brain [1]; in vivo) | Kp uu (in vivo; brain) | pKa (physchem) | fraction unbound at 5 µM (in vitro) | Vdu (Brain [1]) | Kp uu (in vivo; brain and plasma) | further results |
| --- | --- | --- | --- | --- | --- | --- | --- |
| CN/C(=N/CCSCc1nc[nH]c1C)NC#N [CIMETIDINE] | 2.3 mL/g | 1.73 | 7 | 0.76 |  |  |  |
| C[n+]1ccc(-c2ccccc2)cc1 |  |  |  | 0.49 | 157 mL/g | 77 | Compound recovery (Brain [2]): Not Active; Compound recovery (Brain [3]): Not Active |
| NCC1(CC(=O)O)CCCCC1 [GABAPENTIN] |  |  | 10.5 |  | 4.6 mL/g | 4.55 | pKa [4]: 3.9 |
| CN1CC[C@]23c4c5ccc(O)c4O[C@H]2[C@@H](O[C@@H]2O[C@H](C(=O)O)[C@@H](O)[C@H](O)[C@H]2O)C=C[C@H]3[C@H]1C5 [MORPHINE GLUCURONIDE] |  |  | 9 | 0.87 | 0.98 mL/g | 0.86 | pKa [4]: 4.3 |
| Cc1ncc2n1-c1ccc(Cl)cc1C(c1ccccc1F)=NC2 [MIDAZOLAM] |  |  | 5.4 | 0.026 | 29 mL/g | 0.74 |  |
| COc1ccc2c(c1)c(CC(=O)O)c(C)n2C(=O)c1ccc(Cl)cc1 [INDOMETHACIN] | 14 mL/g | 0.6 |  | 0.044 |  |  | Compound recovery (Brain [2]): Active |
| CN(C)C(=O)Oc1cccc([N+](C)(C)C)c1 [NEOSTIGMINE] |  |  |  | 0.95 | 3.2 mL/g | 3.07 | Compound recovery (Brain [2]): Active; Compound recovery (Brain [3]): Not Active |
| CC1(C)O[C@@H]2[C@@H](CO[C@@]3(COS(N)(=O)=O)OC(C)(C)O[C@@H]23)O1 [TOPIRAMATE] |  |  |  | 0.61 | 3.2 mL/g | 1.96 |  |
| CC(=O)O[C@H]1C(=O)[C@@]2(C)[C@H]([C@H](OC(=O)c3ccccc3)[C@]3(O)C[C@H](OC(=O)[C@H](O)[C@@H](NC(=O)c4ccccc4)c4ccccc4)C(C)=C1C3(C)C)[C@]1(OC(C)=O)CO[C@@H]1C[C@@H]2O [PACLITAXEL] |  |  |  | 0.012 | 769 mL/g | 9.03 |  |
| CN1CC[C@]23c4c5ccc(O)c4O[C@H]2C(=O)CC[C@@]3(O)[C@H]1C5 [OXYMORPHONE] |  |  | 8.7 | 0.75 | 4 mL/g | 2.97 |  |
| NC12CC3CC(CC(C3)C1)C2 [AMANTADINE] | 9.9 mL/g | 2.83 |  | 0.29 |  |  |  |
| O=C1OC2(c3ccc(O)cc3Oc3cc(O)ccc32)c2ccccc21 [FLUORESCEIN] | 1.8 mL/g |  |  | 0.42 |  | 0.74 |  |
| CCn1cc(C(=O)O)c(=O)c2cc(F)c(N3CCNCC3)cc21 [NORFLOXACIN] | 2.9 mL/g | 1.66 | 8.7 | 0.58 |  |  | pKa [4]: 4.4 |
| CC(NC(C)(C)C)C(=O)c1cccc(Cl)c1 (centres undefined) [BUPROPION] |  |  | 8.6 |  | 16 mL/g | 2.66 |  |
| CCCC(C)C1(CC)C(=O)NC(=S)NC1=O (centres undefined) [THIOPENTAL] |  |  |  |  |  |  | pKa [4]: 7.6 |
| C=CCc1ccccc1OCC(O)CNC(C)C (centres undefined) [ALPRENOLOL] | 50 mL/g | 2.83 |  | 0.057 |  |  |  |
| CN(C)C(=N)N=C(N)N [METFORMIN] |  |  |  | 0.95 | 10 mL/g | 9.51 | Compound recovery (Brain [2]): Active |
| NCC(CC(=O)O)c1ccc(Cl)cc1 (centres undefined) [BACLOFEN] |  |  | 9.7 | 0.98 | 1.7 mL/g | 1.62 | pKa [4]: 3.7 |
| CC(C)NCC(O)COc1cccc2[nH]ccc12 (centres undefined) [PINDOLOL] |  | 2.89 |  | 0.4 |  |  |  |
| C=C[C@H]1C[N@@]2CC[C@H]1C[C@H]2[C@H](O)c1ccnc2ccc(OC)cc12 [QUININE] |  | 3.51 |  |  |  |  |  |
| Clc1cccc(Cl)c1N=C1NCCN1 [CLONIDINE] | 5.9 mL/g | 2.47 | 8.3 | 0.42 |  |  |  |

| SMILES | Vdu (Brain [1]; in vivo) | Kp uu (in vivo; brain) | pKa (physchem) | fraction unbound at 5 µM (in vitro) | Vdu (Brain [1]) | Kp uu (in vivo; brain and plasma) | further results |
| --- | --- | --- | --- | --- | --- | --- | --- |
| CO[C@H]1/C=C/O[C@@]2(C)Oc3c(C)c(O)c4c(O)c(c(/C=N/N5CCN(C)CC5)c(O)c4c3C2=O)NC(=O)/C(C)=C\C=C\[C@H](C)[C@H](O)[C@@H](C)[C@@H](O)[C@@H](C)[C@H](OC(C)=O)[C@@H]1C [RIFAMPIN] |  |  | 7.6 |  |  |  | pKa [4]: 2.2 |
| O=C(O)Cc1ccccc1Nc1c(Cl)cccc1Cl [DICLOFENAC] |  |  |  | 0.041 | 15 mL/g | 0.61 |  |
| C=C[C@H]1C[N@@]2CC[C@H]1C[C@@H]2[C@@H](O)c1ccnc2ccc(OC)cc12 [QUINIDINE] |  | 3.45 |  |  |  |  |  |
| Nc1c2c(nc3ccccc13)CCCC2 [TACRINE] | 22 mL/g |  |  | 0.16 |  |  |  |
| COc1ccc2c3c1O[C@H]1[C@@H](O)C=C[C@H]4[C@@H](C2)N(C)CC[C@@]341 [CODEINE] | 3.2 mL/g | 1.99 | 8.4 | 0.62 |  |  |  |
| O=C(O)c1ccccc1O [SALICYLIC ACID] | 1 mL/g | 0.62 |  | 0.63 |  |  |  |
| CN(Cc1cnc2nc(N)nc(N)c2n1)c1ccc(C(=O)N[C@@H](CCC(=O)O)C(=O)O)cc1 [METHOTREXATE] | 0.68 mL/g | 0.61 |  | 0.89 |  |  |  |
| CC(C)(C)NCC(O)COc1cccc2c1CC(O)C(O)C2 (centres undefined) [NADOLOL] |  |  | 9.9 |  |  |  |  |
| C=CCOc1ccccc1OCC(O)CNC(C)C (centres undefined) [OXPRENOLOL] | 11.8 mL/g | 3.25 | 9.7 | 0.28 |  |  |  |
| CCNC(=O)C(C(N)=O)c1ccccc1 (centres undefined) | 0.93 mL/g | 0.6 |  | 0.65 |  |  |  |
| CC(C)(C)NC(=O)[C@@H]1C[C@@H]2CCCC[C@@H]2CN1C[C@@H](O)[C@H](Cc1ccccc1)NC(=O)[C@H](CC(N)=O)NC(=O)c1ccc2ccccc2n1 | 208 mL/g | 0.79 | 6.8 | 0.0038 |  |  | Unbound brain volume of distribution (Brain [5]): Active |
| COc1cccc(C2(O)CCCCC2CN(C)C)c1 (centres undefined) [TRAMADOL] | 4.2 mL/g | 2.25 | 9.7 | 0.53 |  |  |  |
| CSc1ccc2c(c1)N(CCC1CCCCN1C)c1ccccc1S2 (centres undefined) [THIORIDAZINE] | 3333 mL/g | 2.24 | 8.9 | 0.00067 |  |  |  |
| Cc1nnc2n1-c1ccc(Cl)cc1C(c1ccccc1)=NC2 [ALPRAZOLAM] |  |  |  | 0.16 | 6.5 mL/g |  |  |
| Nc1nnc(-c2cccc(Cl)c2Cl)c(N)n1 [LAMOTRIGINE] | 4.6 mL/g | 0.96 |  | 0.21 |  |  |  |
| CN(C)CCC=C1c2ccccc2CCc2ccccc21 [AMITRIPTYLINE] | 310 mL/g |  | 9.5 | 0.01 |  | 3.08 |  |
| C[C@H]1COc2c(N3CCN(C)CC3)c(F)cc3c(=O)c(C(=O)O)cn1c23.C[C@H]1COc2c(N3CCN(C)CC3)c(F)cc3c(=O)c(C(=O)O)cn1c23.O [LEVOFLOXACIN] |  |  |  | 0.84 | 1.7 mL/g | 1.44 |  |
| CN1CC[C@]23c4c5ccc(O[C@@H]6O[C@H](C(=O)O)[C@@H](O)[C@H](O)[C@H]6O)c4O[C@H]2[C@@H](O)C=C[C@H]3[C@H]1C5 [MORPHINE 3-GLUCURONIDE] |  |  |  | 0.97 | 0.6 mL/g | 0.58 |  |
| CN(C)C(=O)C(CCN1CCC(O)(c2ccc(Cl)cc2)CC1)(c1ccccc1)c1ccccc1 [LOPERAMIDE] |  |  | 9 | 0.008 | 370 mL/g | 2.95 | Unbound brain volume of distribution (Brain [5]): Active |
| O=C(O)c1cc(/N=N/c2ccc(S(=O)(=O)Nc3ccccn3)cc2)ccc1O [SULFASALAZINE] |  |  |  |  |  |  | pKa [4]: 2 |
| CC(C)Nc1cccnc1N1CCN(C(=O)c2cc3cc(NS(C)(=O)=O)ccc3[nH]2)CC1 [DELAVIRDINE] | 40 mL/g | 0.86 | 4.5 | 0.022 |  |  |  |

From ChEMBL document CHEMBL3525927, “Measurement of unbound drug exposure in brain: modeling of pH partitioning explains diverging results between the brain slice and brain homogenate methods” (Drug Metab Dispos, 2011)
